# Data: article PMC4420247, “8-Triazolylpurines: Towards Fluorescent Inhibitors of the MDM2/p53 Interaction” (PLoS ONE, 2015)
# Tests used:
# [1] = biological target: T1, MDM2 (Homo sapiens, UniProt Q00987); assay: FP displacement of Texas Red-labelled p53 peptide from MDM2; binding confirmed by WaterLOGSY NMR
# [2] = biological target: T1, MDM2; assay: FP displacement of Texas Red-labelled p53 peptide from MDM2; assay type: binding
# T1 sequence (Q00987 whole entry): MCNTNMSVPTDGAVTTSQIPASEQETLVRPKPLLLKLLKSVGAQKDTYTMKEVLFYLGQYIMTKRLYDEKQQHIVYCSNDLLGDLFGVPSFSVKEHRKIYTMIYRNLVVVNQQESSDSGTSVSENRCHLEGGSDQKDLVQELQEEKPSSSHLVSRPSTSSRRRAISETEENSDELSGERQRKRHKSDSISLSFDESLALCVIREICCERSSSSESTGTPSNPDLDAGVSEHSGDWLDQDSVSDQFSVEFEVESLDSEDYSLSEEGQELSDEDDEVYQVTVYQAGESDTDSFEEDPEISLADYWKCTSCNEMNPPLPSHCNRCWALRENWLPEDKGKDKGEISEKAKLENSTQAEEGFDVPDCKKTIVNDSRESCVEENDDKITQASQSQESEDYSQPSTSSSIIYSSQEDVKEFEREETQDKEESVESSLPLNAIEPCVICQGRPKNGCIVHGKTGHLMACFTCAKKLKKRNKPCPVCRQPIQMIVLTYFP
IC50 [1] [µM],IC50 [2] [µM],Compound
10,,"CCCNc1nc(NCC(=O)OCC)c2nc(-c3cn(C)nn3)n(C3Cc4ccccc4C3)c2n1 [14f, 6-(Ethoxy-carbonyl-methylamino)-9-(2-indanyl)-8-(1-methyl-1H-1,2,3-triazol-4-yl)-2-(1-propylamino)purine]"
,56,CCCNc1nc(N)c2nc(-c3cn(C)nn3)n(C3Cc4ccccc4C3)c2n1 [14j]
